Test results as given in article PMC9046208, “Foldamers reveal and validate therapeutic targets associated with toxic α-synuclein self-assembly” (Nature Communications, 2022).
“Also recorded” adds a separate entry of the source.

Key:
αS1 = biological target: T1, αS1 (Homo sapiens, UniProt P37840, DEL6-12); assay: Fluorescence polarization titration, SK-129F with αS1; type: binding; conditions: FP
T1 construct: made in house; host or cells: Escherichia coli BL21(DE3), periplasm
Method: (§1) All Fluorescence Polarization (FP) experiments were conducted on a Varian Cary Eclipse fluorometer (Agilent, Santa Clara, CA) equipped with a polarizer. The stock solutions of αS, 1 mM or 100 μM in 1x PBS buffer, were serially added into a solution of 10 μM SK-129F (300 μL in 1x PBS buffer) while stirring in a quartz cuvette (Fireflysci, Staten Island, NY). All FP measurements were conducted in triplicates in 20 mM Tris, 100 mM NaCl, pH 7.2 at 20 °C. The excitation and emissions wavelengths were set at 490 nm and 520 nm, respectively. Each titration was equilibrated for five min before measurements were taken for the next addition of αS solution. The addition of αS solution was continuous until no more change in the FP signal was observed. Similar conditions were used for the titration of various αS mutants and Aβ42 peptide against SK-129F. A stock solution of Aβ42 (1 mM or 100 μM in 1x PBS buffer on ice) was sequentially added to a solution of 10 μM SK-129F (300 μL in 1x PBS buffer) until no more change in the FP signal was observed. The polarization of each point was calculated using Eq. 1:1 FP=I∥−I⊥/I∥+I⊥ Where I∥ is fluorescence intensity parallel to the excitation plane and I⊥ is fluorescence intensity perpendicular to the excitation plane. […]

αS4 = assay: Fluorescence polarization titration, SK-129F with αS4; type: binding; conditions: FP
Method: as §1

αS = biological target: T2, αS (Homo sapiens, UniProt P37840); assay: Fluorescence polarization titration, SK-129F with WT αS; type: binding
T2 construct: made in house; host or cells: Escherichia coli BL21(DE3), periplasm
Method: All Fluorescence Polarization (FP) experiments were conducted on a Varian Cary Eclipse fluorometer (Agilent, Santa Clara, CA) equipped with a polarizer. The stock solutions of αS, 1 mM or 100 μM in 1x PBS buffer, were serially added into a solution of 10 μM SK-129F (300 μL in 1x PBS buffer) while stirring in a quartz cuvette (Fireflysci, Staten Island, NY). All FP measurements were conducted in triplicates in 20 mM Tris, 100 mM NaCl, pH 7.2 at 20 °C. The excitation and emissions wavelengths were set at 490 nm and 520 nm, respectively. Each titration was equilibrated for five min before measurements were taken for the next addition of αS solution. The addition of αS solution was continuous until no more change in the FP signal was observed. Similar conditions were used for the titration of various αS mutants and Aβ42 peptide against SK-129F. A stock solution of Aβ42 (1 mM or 100 μM in 1x PBS buffer on ice) was sequentially added to a solution of 10 μM SK-129F (300 μL in 1x PBS buffer) until no more change in the FP signal was observed. The polarization of each point was calculated using Eq. 1:1 FP=I∥−I⊥/I∥+I⊥ Where I∥ is fluorescence intensity parallel to the excitation plane and I⊥ is fluorescence intensity perpendicular to the excitation plane. The plot between the relative change in the FP signal against the concentration of the protein (αS/ Aβ42) was fit using one site binding model and Kd between SK-129F and αS (αS mutants/Aβ42) was extracted from the fit. For displacement titration, a 10 μM SK-129F solution was saturated with 10 mole equivalents of αS (300 μL in 1x PBS buffer). To this solution, a stock solution of SK-129 (1 mM or 10 mM) was serially added to displace SK-129F from the αS-SK-129F complex. The solution of SK-129 was continuously added until no more change in the FP signal was observed. A plot between the relative change in the FP signal against the concentration of SK-129 was fit using a one-site competitive binding model and Kd between SK-129 and αS was extracted from the fit.

αS2 = biological target: T3, αS2 (Homo sapiens, UniProt P37840, DEL15-23); assay: Fluorescence polarization titration, SK-129F with αS2; type: binding; conditions: FP
T3 construct: made in house
Method: as §1

αS3 = biological target: T4, αS3 (Homo sapiens, UniProt P37840, DEL36-45); assay: Fluorescence polarization titration, SK-129F with αS3; type: binding; conditions: FP
T4 construct: Synuclein Residues (1-140); made in house
Method: as §1

αS oligomers = biological target: T5, αS oligomers (Homo sapiens, UniProt P37840); assay: Gel shift assay of αS supernatant (oligomers); type: biochemical; conditions: 70 µM αS, 0.1, 0.2, 0.5 mol eq. ligand, 7 days
T5 construct: made in house; host or cells: Escherichia coli BL21(DE3), periplasm
Method: Supplementary Fig. 8. Gel-shift images of αS (70 µM) incubated in the absence (lane 2) and presence of SK-129 (a) and EGCG (b) at sub-stoichiometric ratios (0.1, 0.2, 0.5 mol eq.) for 7 days at 370C with constant shaking. The solutions of αS in the absence and presence of ligands were centrifuged and the supernatant was used for the gel shift assay. The arrows indicate the formation of various αS structures. The gel shift assay of the supernatant of the αS aggregated […]
fibers. Most of the αS was found in the supernatant as a mo nomer and a dimer in the presence of […]
their formation. The gel experiments were conducted at least two times to confirm the reproducibility of the data.
(1 picture or pasted object on this page, not shown here)

With COC(=O)c1cc(OCC(=O)O)c2cccc(NC(=O)c3cc(OC(C)C)c4cccc(NC(=O)c5cc(OCC(=O)O)c6cccc(NC(=O)c7cc(OC(C)C)c8cccc(NC(=S)NCC(=O)Nc9ccc(-c%10c%11ccc(=O)cc-%11oc%11cc(O)ccc%10%11)c(C(=O)O)c9)c8n7)c6n5)c4n3)c2n1 [SK-129F] the “binding affinity weaker than WT αS” value (αS1) was 3–4 fold, the “binding affinity weaker than WT αS” value (αS4) was over 10 fold and the Kd (αS; FP fit, WT αS, trial 1) was 864 nM. For the same molecule, the Kd (αS; FP fit, WT αS, trial 2) was 791 nM, the Kd (αS; FP fit, WT αS, trial 3) was 758 nM and the Kd (αS; FP titration, 10 μM SK-129F with αS, mean ± s.d., n = 3) was 810 ± 90 nM. The “binding affinity weaker than WT αS” value (αS2) was 3–4 fold and the “binding affinity weaker than WT αS” value (αS3) was ~ 8 fold.
With O=C(O[C@@H]1Cc2c(O)cc(O)cc2O[C@@H]1c1cc(O)c(O)c(O)c1)c1cc(O)c(O)c(O)c1 [EGCG, Epigallocatechin Gallate] the “αS species in gel shift assay” value (αS oligomers) was “higher-order toxic oligomers; also recorded: higher-order oligomers were observed”.
